Where a name gives a salt, the structure may show the parent alone.
What was measured:
[1] = tested on: durch Tetrabenazin induzierte Ptosis; assay: Tetrabenazine antagonism (antagonism of tetrabenazine-induced ptosis); format: in vivo, Mäusen; settings: Mus musculus, ip; dose at which ptosis induced by 20 mg/kg i.p. Tetrabenazin is reduced by 50 %; mice; read-out: DE50 (the source's name)
Text: (§1) Die Verbindungen wurden auf anxiolytische, nootrope und antidepressive Eigenschaften geprüft. Als Leittest für die anxiolytische Wirkung diente die Antagonisierung der Fußschock-induzierten Aggressivität nach Tedeschi^1; für die antidepressive Wirkung der Antitetrabenazin^2- und Amphetaminpotenzierungstest . Beispielsweise wurden für die antidepressiven Wirkungen der erfindungsgemäßen Substanzen folgende Werte erhalten:
1) Tetrabenazin Antagonismus
Antidepressiv wirksame Substanzen antagonisieren die durch Tetrabenazin induzierte Ptosis bei Mäusen. Der DE50-Wert gibt diejenige Dosis an, bei der die durch 20 mg/kg i.p. Tetrabenazin induzierte Ptosis zu 50 % reduziert ist. Dazu seien Beispiele genannt:
• 1 Tedeschi et al., J. Pharmacol. Exp. Ther. 129, 28-34, 1959 • 2 J. L. Howard et al., in: Antidepressants: Neurochemical,.Behavioral and Clinical Perspectives, herausgegeben von S. J. Enna et al., Raven Press N. Y., S. 107-120, 1981.

[2] = tested on: Amphetamininduzierte stereotype Verhalten; assay: Amphetamine potentiation (potentiation of amphetamine-induced stereotyped behaviour); format: in vivo, Ratte; settings: ip; dose at which behaviour induced by 2 mg/kg DL-Amphetaminsulfat i. v. is enhanced by 50 %; rat; read-out: DE50 (the source's name)
Text: as §1
2) Amphetamin-Potenzierung
Antidepressiv wirksame Substanzen potenzieren das Amphetamininduzierte stereotype Verhalten bei der Ratte.
Der angegebene DE50-Wert ist die Dosis, bei der das Amphetamininduzierte Verhalten nach Gabe von 2 mg/kg DL-Amphetaminsulfat i. v. um 50 % verstärkt ist.

CC(NC(C)(C)Cc1ccccc1)C(=O)c1cccc(Cl)c1 (stereo not shown) [Beispiel 1, 1-(3-Chlorphenyl)-2-(1,1-dimethyl-2-phenylethylamino)propan-1-onhydrochlorid]
ED50 [1]: 1 mg/kg | ED50 [2]: 13 mg/kg

CC(Cc1ccccc1)NC(C)C(=O)c1cccc(Cl)c1 (stereo not shown) [Beispiel 2, 1-(3-Chlorphenyl)-2-(1-methyl-2-phenyl-ethylamino) propan-1-onhydrochlorid]
ED50 [1]: 14 mg/kg | ED50 [2]: 6 mg/kg

CC(NC(C)(C)Cc1ccc(Cl)cc1)C(=O)c1cccc(Cl)c1 (stereo not shown) [Beispiel 3, 1-(3-Chlorphenyl)-2-(1,1-dimethyl-2-(4-chlor-phenyl)ethylamino)propan-1-onhydrochlorid]
ED50 [1]: 12 mg/kg | ED50 [2]: 9 mg/kg

CC(NC(C)(C)Cc1ccccc1)C(=O)c1ccccc1 (stereo not shown) [Beispiel 4, 1-Phenyl-2-(1,1-dimethyl-2-phenylethylamino)-propan-1-onhydrochlorid]
ED50 [1]: 19 mg/kg

COc1ccc(CC(C)(C)NC(C)C(=O)c2cccc(Cl)c2)cc1 (stereo not shown) [Beispiel 5, 1-(3-Chlorphenyl)-2-(1,1-dimethyl-2-(4-methoxyphenyl)ethylamino)propan-1-onhydrochlorid]
ED50 [1]: 6.5 mg/kg

CC(NC(C)(C)Cc1ccccc1)C(=O)c1cccc(F)c1 (stereo not shown) [Beispiel 6, 1-(3-Fluorphenyl)-2-(1,1-dimethyl-2-phenylethylamino)propan-1-onhydrochlorid]
ED50 [1]: 6 mg/kg

CC(NC(C)(C)Cc1ccccc1)C(=O)c1cccc(C(F)(F)F)c1 (stereo not shown) [Beispiel 7, 1-(3-Trifluormethylphenyl)-2-(1,1-dimethyl-2-phenylethylamino)propan-1-onhydrochlorid]
ED50 [1]: 10 mg/kg
